Results reported in US20220323405A1, “COMBINATION PRODUCT USING 3,4-METHYLENEDIOXYMETHAMPHETAMINE AND […] THE TREATMENT OF […] DISORDERS” (Universitätsspital Basel, priority 2021, published 2022).
Like-named read-outs stand apart in the source and are kept apart here.

Key:
[1] = system: healthy human subjects; conditions: MDMA 125 mg vs placebo, cited from earlier work
[2] = system: healthy humans; assay: Modeled co-administration of carvedilol with MDMA at the same time (estimates from pre-administration data); set-up: species or system human
Source text: FIGS. 11A-11C are graphs showing effects of MDMA alone, carvedilol alone, carvedilol prior to MDMA and carvedilol co-administered with MDMA at the same time (modeled data) on systolic (FIG. 11A), diastolic (FIG. 11B), and mean arterial blood pressure (FIG. 11C) in healthy humans; and
FIGS. 12A-12B are graphs showing effects of MDMA alone, carvedilol alone, carvedilol prior to MDMA and carvedilol co-administered with MDMA at the same time (modeled data) on heart rate (FIG. 12A) and body temperature (FIG. 12B) in healthy humans.
Therefore, the present invention further developed the carvedilol-pre-dosing approach into a simultaneous dosing approach. The study provided the information on the effects of carvedilol alone, and MDMA alone.
For blood pressure and heart rate the effects of carvedilol given simultaneously with MDMA were therefore estimated using the carvedilol and placebo mean values for each measured time point after administration and the mean carvedilol-placebo effect difference was calculated and then subtracted from the MDMA-placebo difference (FIGS. 11A-11C).
FIGS. 11A-11C and 12A-12B illustrate the beneficial effect of the present invention using co-administration of the adverse effect-reducing agent (carvedilol) and the empathogen/entactogen (MDMA). If carvedilol is administered before MDMA (carvedilol prior MDMA condition) as in the past study (Hysek et al., 2012a), a drop in blood pressure and heart rate can be observed in FIGS. 11A-11C and 12A-12B prior to the MDMA administration and consistent with the effect of carvedilol alone.
The graphical illustrations (FIGS. 11A-11C and 12A-12B) are based on estimates and modeling using existing data from the pre-administration of carvedilol. However, it is clear from illustrations FIGS. 11A-11C and 12A-12B that the invention provides an effective approach to reduce MDMA-induced cardiostimulant effects.

[3] = system: healthy subjects; conditions: non-ambulating persons, 1.5-4 hours after administration vs placebo; p<0.001; cited from earlier work
[4] = system: humans; conditions: cited from earlier work
[5] = system: rats; conditions: cited from earlier work
[6] = system: humans; conditions: carvedilol 50 mg; cited from earlier work
[7] = system: healthy subjects; conditions: cited from earlier work
[8] = system: healthy subjects; conditions: doxazosin 8 mg/d for 3 days before MDMA 125 mg; cited from earlier work
[9] = humans, after MDMA vs after pindolol-MDMA
[10] = carvedilol 50 mg 1 hour before MDMA 125 mg
[11] = carvedilol 50 mg 1 hour before MDMA 125 mg, listed as Carvedilol

Question: For `CNC(C)Cc1ccc2c(c1)OCO2` (stereo not shown) [MDMA, 3,4-methylenedioxymethamphetamine], which “Diastolic and systolic blood pressure” value [1] is on record?
Answer: Its value is “significantly increased”.

Question: What about the Heart rate [1] of the same molecule?
Answer: Its Heart rate is “significantly increased”.

Question: What about the Pupil size [1] of the same molecule?
Answer: Its Pupil size is “significantly increased”.

Question: And the Rate pressure product [1]?
Answer: Its Rate pressure product is “significantly increased”.

Question: What about the Body temperature ([1]; tympanic) of the same molecule?
Answer: Its Body temperature is “significantly increased”.

Question: What about the “Body temperature (FIG. 12B)” value ([2]; MDMA alone) of the same molecule?
Answer: Its value is “slightly increases”.

Question: What about the Body temperature [3] of the same molecule?
Answer: The Body temperature was “elevated”.

Question: And the “Peak mean arterial blood pressure (MAP) values” [4, 9]?
Answer: Its value is 115±11 mm Hg.

Question: What about the “Peak values (mean±SD) for heart rate” value [4, 9] of the same molecule?
Answer: Its value is 84±13 beats/minute.

Question: What about the Norepinephrine levels [5] of the same molecule?
Answer: Its Norepinephrine levels is “induced”.

Question: Which “Effect on smoked cocaine-induced increases in heart rate and blood pressure” value [6] does the source give for `COc1ccccc1OCCNCC(O)COc1cccc2[nH]c3ccccc3c12` (stereo not shown) [carvedilol] here?
Answer: Its value is “attenuate”.

Question: What about the “Effect on MDMA-induced elevations in blood pressure” value [7, 10] of the same molecule?
Answer: Its value is “effectively reduced”.

Question: What about the “Effect on MDMA-induced elevations in body temperature” value [7, 10] of the same molecule?
Answer: Its value is “reduced”.

Question: And the “Effect on MDMA-induced elevations in heart rate” value [7, 10]?
Answer: Its value is “effectively reduced”.

Question: What about the “Effect on plasma exposure to MDMA” value [7, 10] of the same molecule?
Answer: Its value is “did not alter”.

Question: What about the “Effect on subjective effects of MDMA (good drug effects, drug liking)” value [7, 10] of the same molecule?
Answer: The value was “did not alter”.

Question: What about the “Effect on MDMA-induced elevations in blood pressure” value [7, 11] of the same molecule?
Answer: Its value is “reduced”.

Question: And the “Effect on MDMA-induced elevations in heart rate” value [7, 11]?
Answer: Its value is “reduced”.

Question: And the “Effect on subjective effects of MDMA (good drug effects, drug liking)” value [7, 11]?
Answer: The value was “did not affect”.

Question: And the “Blood pressure and heart rate prior to the MDMA administration” value ([7]; carvedilol prior MDMA condition)?
Answer: The value was “drop”.

Question: What about the “Effect on MDMA-induced increase in body temperature (FIG. 12B)” value ([2]; carvedilol administered prior to MDMA and with MDMA, modeled data) of the same molecule?
Answer: The value was “reduce”.

Question: What about the “Effect on MDMA-induced increase in heart rate and blood pressure” value ([2]; carvedilol with MDMA at the same time, modeled data) of the same molecule?
Answer: The value was “reduce the MDMA effect effectively and similarly”.

Question: What about the “Effect on established MDMA-induced hyperthermia” value ([5]; administered 1 hour after MDMA) of the same molecule?
Answer: Its value is “completely reversed”.

Question: What about the “Effect on MDMA-induced hyperthermic (thermogenic) response” value ([5]; administered before or after MDMA) of the same molecule?
Answer: Its value is “prevented”.

Question: What does the source list for `COc1cc2nc(N3CCN(C(=O)C4COc5ccccc5O4)CC3)nc(N)c2cc1OC` (stereo not shown) [Doxazosin, doxazosin]?
Answer: Effect on MDMA-induced elevations in blood pressure [8]: reduced; Effect on MDMA-induced elevations in body temperature [8]: reduced

Question: What does the source list for `CC(C)NCC(O)COc1cccc2[nH]ccc12` (stereo not shown) [pindolol]?
Answer: Effect on MDMA-induced increase in body temperature ([4]; pindolol pretreatment): no effect; Effect on adverse effects of MDMA ([4]; pindolol pretreatment): did not change
